Data reported in patent publication US9783849B2, “Method for identifying immunoreactive peptides” (immatics biotechnologies GmbH, priority 2002, dated 2017).

Experiments:
[1] = system: CD8+ T-lymphocytes (PBMC); assay: staining of PBMC with HLA-A*0201 tetramers, flow cytometry; format: cell-based, human
Description: Peripheral blood mononuclear cells (in the following PBMC) from two healthy donors (HDI and HD2), which were serologically typed as CMV-positive, were isolated by gradient centrifugation (FicoLite H) and frozen.
HLA-A *0201 tetrameric complexes were produced as described by Altman et al., 1996, Phenotypic analysis of antigen-specific T-lymphocytes, Science 274: 94-96, as follows: The HLA-A2-binding peptides used for the refolding were […] (SEQ ID NO: 1) from keratin 18 and […] (SEQ ID NO: 2) from pp65 HCMVA. Tetramers were assembled by mixing biotinylated monomers with streptavidin-PE or streptavidin-APC and 2-3×10^6 cells were incubated 30 min at 4° C. with both tetramers: 10 μg/ml for each monomer in PBS, 0.01% NaN3, 2 mM EDTA, 50% fetal calf serum). Then, monoclonal antibodies Anti-CD4-FITC (Coulter-Immunotech) and Anti-CD8-PerCP (Becton Dickinson) were added for 20 min. After three washes, samples were fixed in FACS buffer, 1% formaldehyde. Four-color analysis was performed on a FACScalibur cytometer (Becton Dickinson).
Staining of PBMC of tumor patients and healthy individuals with HLA-A*0201 tetramers was performed with tetramers reconstituted either with adipophilin, keratin 18 or met-proto-oncogene.
Dot plots show samples from one of three independent experiments for 1×10^6 PBMC. In the plots, percentage of tetramer^+-cells within the CD8^+ CD4^− population are indicated.

[2] = system: CD8+ T-cells (PBMC from HLA-A2 positive renal cell carcinoma patients); assay: quantitative PCR assay of γ-Interferon-mRNA production after 7 day in vitro sensitization with peptide; format: cell-based, human; details: PBMC from 6 HLA-A2 positive renal cell carcinoma patients
Protocol: PBMC from 6 HLA-A2 positive renal cell carcinoma patients were tested for reaction against four of the relevant peptides: HLA-A*02-restricted ligands from adipophilin, keratin 18, K1AA0367 and met-proto-oncogene. In doing so, a very sensitive quantitative PCT assay was carried out to detect γ-Interferon-mRNA production by CD8^+ T-cells following a 7 day-in vitro-sensitization with peptide.

Sequence	healthy individuals in whom a significant specific CD8+ T-lymphocyte population was found ([1]; HLA-A*0201 tetramer staining of PBMC of healthy individuals)	γ-Interferon-mRNA production by CD8+ T-cells (response to peptide) [2]	staining of the keratin 18-specific CD8+ population with the tetramer ([1]; simultaneous staining with HLA-A2/keratin 18-PE and HLA-A2/CMV-APC tetramers, specificity control)
ALLNIKVKL (listed as Homo sapiens) [keratin 18]	4 out of 22	Sporadic responses	–
NLVPMVATV [CMV tetramer, reference compound]	–	–	did not stain
YVDPVITSI (listed as Homo sapiens) [met-proto-oncogene, HLA-A*02-restricted ligand derived from met proto-oncogene]	–	Sporadic responses	–
SVASTITGV (listed as Homo sapiens) [adipophilin, HLA-A*02-restricted ligand from adipophilin]	–	Sporadic responses	–
